Results taken from the NIST ThermoML archive (doi:10.1016/j.jct.2018.10.015).
Numbers after ± are expanded uncertainties.

Assay: xn = mol fraction of the nth substance listed
Conditions: 101.3 kPa, Liquid; for viscosity: Concentric cylinders viscometry; for mass density: Vibrating tube method

CCCCn1cc[n+](C)c1C.O=S(=O)([N-]S(=O)(=O)C(F)(F)F)C(F)(F)F + CCOC(=O)OCC
Conditions	mass density [kg/m3]	viscosity [mPa·s]
293.15 K, x1 = 0.0996	1078.2 ± 2.4	2.172 ± 0.028
293.15 K, x1 = 0.199	1156.1 ± 2.4	4.104 ± 0.053
293.15 K, x1 = 0.299	1216.4 ± 2.4	7.648 ± 0.096
293.15 K, x1 = 0.3982	1263.9 ± 2.4	13.1 ± 0.16
293.15 K, x1 = 0.4985	1302.6 ± 2.4	21.35 ± 0.27
293.15 K, x1 = 0.5979	1334.6 ± 2.4	33.14 ± 0.42
293.15 K, x1 = 0.698	1361.8 ± 2.5	49.42 ± 0.62
293.15 K, x1 = 0.8	1385.4 ± 2.5	71.45 ± 0.93
293.15 K, x1 = 0.9012	1405.7 ± 2.5	99.34 ± 1.5
293.15 K, x1 = 1	1423.1 ± 2.5	133.6 ± 2.3
298.15 K, x1 = 0.0996	1072.9 ± 2.4	1.989 ± 0.025
298.15 K, x1 = 0.199	1151 ± 2.4	3.665 ± 0.045
298.15 K, x1 = 0.299	1211.4 ± 2.4	6.684 ± 0.081
298.15 K, x1 = 0.3982	1259 ± 3	11.19 ± 0.14
298.15 K, x1 = 0.4985	1297.7 ± 2.4	17.82 ± 0.22
298.15 K, x1 = 0.5979	1329.8 ± 2.4	27.06 ± 0.33
298.15 K, x1 = 0.698	1357.1 ± 2.5	39.58 ± 0.49
298.15 K, x1 = 0.8	1380.8 ± 2.5	56.2 ± 0.69
298.15 K, x1 = 0.9012	1401.1 ± 2.5	76.75 ± 1
298.15 K, x1 = 1	1418.5 ± 2.5	101.82 ± 1.6
303.15 K, x1 = 0.0996	1067.5 ± 2.4	1.829 ± 0.023
303.15 K, x1 = 0.199	1145.8 ± 2.4	3.295 ± 0.04
303.15 K, x1 = 0.299	1206.4 ± 2.4	5.892 ± 0.072
303.15 K, x1 = 0.3982	1254.1 ± 2.4	9.654 ± 0.12
303.15 K, x1 = 0.4985	1292.9 ± 2.4	15.06 ± 0.18
303.15 K, x1 = 0.5979	1325.1 ± 2.4	22.44 ± 0.27
303.15 K, x1 = 0.698	1352.4 ± 2.5	32.24 ± 0.4
303.15 K, x1 = 0.8	1376.1 ± 2.5	44.95 ± 0.56
303.15 K, x1 = 0.9012	1396.5 ± 2.5	60.57 ± 0.75
303.15 K, x1 = 1	1413.9 ± 2.5	79.23 ± 1.1
308.15 K, x1 = 0.0996	1062.1 ± 2.4	1.689 ± 0.021
308.15 K, x1 = 0.199	1140.6 ± 2.4	2.979 ± 0.037
308.15 K, x1 = 0.299	1201.3 ± 2.4	5.234 ± 0.063
308.15 K, x1 = 0.3982	1249.1 ± 2.4	8.41 ± 0.1
308.15 K, x1 = 0.4985	1288.1 ± 2.4	12.88 ± 0.16
308.15 K, x1 = 0.5979	1320.3 ± 2.4	18.86 ± 0.23
308.15 K, x1 = 0.698	1347.6 ± 2.5	26.64 ± 0.33
308.15 K, x1 = 0.8	1371.4 ± 2.5	36.59 ± 0.45
308.15 K, x1 = 0.9012	1391.9 ± 2.5	48.62 ± 0.6
308.15 K, x1 = 1	1409.3 ± 2.5	62.74 ± 0.78
313.15 K, x1 = 0.0996	1056.8 ± 2.4	1.565 ± 0.02
313.15 K, x1 = 0.199	1135.4 ± 2.4	2.708 ± 0.033
313.15 K, x1 = 0.299	1196.3 ± 2.4	4.682 ± 0.057
313.15 K, x1 = 0.3982	1244.2 ± 2.4	7.39 ± 0.089
313.15 K, x1 = 0.4985	1283.2 ± 2.4	11.12 ± 0.13
313.15 K, x1 = 0.5979	1315.5 ± 2.4	16.03 ± 0.19
313.15 K, x1 = 0.698	1342.9 ± 2.5	22.31 ± 0.27
313.15 K, x1 = 0.8	1366.8 ± 2.5	30.21 ± 0.37
313.15 K, x1 = 0.9012	1387.2 ± 2.5	39.65 ± 0.49
313.15 K, x1 = 1	1404.8 ± 2.5	50.56 ± 0.6
318.15 K, x1 = 0.0996	1051.4 ± 2.4	1.456 ± 0.019
318.15 K, x1 = 0.199	1130.3 ± 2.4	2.472 ± 0.03
318.15 K, x1 = 0.299	1191.3 ± 2.4	4.215 ± 0.051
318.15 K, x1 = 0.3982	1239.3 ± 2.4	6.543 ± 0.079
318.15 K, x1 = 0.4985	1278.4 ± 2.4	9.697 ± 0.12
318.15 K, x1 = 0.5979	1310.8 ± 2.4	13.78 ± 0.17
318.15 K, x1 = 0.698	1338.2 ± 2.5	18.9 ± 0.23
318.15 K, x1 = 0.8	1362.1 ± 2.5	25.27 ± 0.31
318.15 K, x1 = 0.9012	1382.6 ± 2.5	32.78 ± 0.4
318.15 K, x1 = 1	1400.2 ± 2.5	41.38 ± 0.5
323.15 K, x1 = 0.0996	1046 ± 2.4	1.359 ± 0.017
323.15 K, x1 = 0.199	1125.1 ± 2.4	2.268 ± 0.028
323.15 K, x1 = 0.299	1186.3 ± 2.4	3.816 ± 0.046
323.15 K, x1 = 0.3982	1234.4 ± 2.4	5.835 ± 0.07
323.15 K, x1 = 0.4985	1273.6 ± 2.4	8.523 ± 0.1
323.15 K, x1 = 0.5979	1306 ± 3	11.95 ± 0.14
323.15 K, x1 = 0.698	1333.6 ± 2.4	16.18 ± 0.19
323.15 K, x1 = 0.8	1357.5 ± 2.5	21.39 ± 0.26
323.15 K, x1 = 0.9012	1378 ± 3	27.46 ± 0.33
323.15 K, x1 = 1	1395.6 ± 2.5	34.32 ± 0.42
328.15 K, x1 = 0.0996	1040.5 ± 2.5	1.271 ± 0.016
328.15 K, x1 = 0.199	1119.8 ± 2.4	2.09 ± 0.026
328.15 K, x1 = 0.299	1181.2 ± 2.4	3.473 ± 0.042
328.15 K, x1 = 0.3982	1229.5 ± 2.4	5.245 ± 0.063
328.15 K, x1 = 0.4985	1268.7 ± 2.4	7.565 ± 0.09
328.15 K, x1 = 0.5979	1301.3 ± 2.4	10.47 ± 0.13
328.15 K, x1 = 0.698	1328.8 ± 2.5	14.02 ± 0.17
328.15 K, x1 = 0.8	1352.8 ± 2.5	18.35 ± 0.22
328.15 K, x1 = 0.9012	1373.4 ± 2.5	23.33 ± 0.28
328.15 K, x1 = 1	1391 ± 2.5	28.91 ± 0.35
